# EP0795549A1, “Bis-aryloxy(amino)-triazinyl-oxy(amino)aryl derivatives, their preparation and their use as antiviral agents” (American Cyanamid Company, priority 1996, dated 1997)
# Structures can show the parent of a compound that is named as a salt. Where two headings read alike, the source gives them in different places.
# Assays:
# [1] = system: RSV (A2); experiment: viral yield reduction (growth inhibition) assay, RSV; format: cell-based, Respiratory Syncitial Virus; conditions: for IC50: human respiratory syncytial virus
# Procedure: (§1) The compounds were tested for biological activity using viral yield reduction assays. Host cells (indicated as HF for human foreskin fibroblasts and as vero, the commonly used African green monkey cell line, in Tables 1 and 1a) were plated at 4 x 10^4 cells/well in cell growth medium with 2% fetal bovine serum or 2% calf serum in 96-well plates (0.1 ml/well) and incubated overnight. The compounds were added to individual wells to give final concentrations ranging from 50 to 0.1 µg/ml in two-fold concentration steps. After 1 hour, virus was added, and the incubation was continued for 4 days with RSV or CMV and for 2 days with HSV. At the end of the experiment, the amount of virus growth was quantitated and the yield reduction at various concentrations of compound was calculated. This allows estimation of the concentration of compound giving 50% reduction in virus growth (IC50).
# [2] = system: CMV (Ad169); experiment: viral yield reduction (growth inhibition) assay, CMV; format: cell-based, Cytomegalovirus; conditions: for Antiviral IC50 µg/ml CMV /HF: Table 1a; for IC50 µG/mL IN GROWTH […]/ HF: HF host cells
# Procedure: as §1
# [3] = system: HSV1 (Patton); experiment: viral yield reduction (growth inhibition) assay, HSV; format: cell-based, Herpes Simplex Virus; conditions: for Antiviral IC50 µg/ml HSV Vero: Table 1a, format not given; for IC50 µG/mL IN GROWTH […]/ HF: HF host cells
# Procedure: as §1
# [4] = system: CMV (Ad169); experiment: viral plaque reduction assay, CMV; format: cell-based, Cytomegalovirus; conditions: CMV (Ad169), HF host cells; for IC50: Human betaherpesvirus 5, read-out: IC50µG/mL IN PLAQUE ASSAY CMV/ HF
# [5] = system: RSV; experiment: viral plaque reduction assay, RSV; format: cell-based, Respiratory Syncitial Virus; conditions: RSV (A2), vero host cells
# [6] = system: RSV A2; format: in vivo, cotton rats; conditions: rat, in vivo
# [7] = Table 1a, HF, yield reduction or plaque format not specified
# [8] = HF host cells, read-out: IC50 µG/mL IN GROWTH […]/ HF
# [9] = vero host cells, read-out: IC50 µG/mL IN GROWTH […]/ VERO
# [10] = Human betaherpesvirus 5, HF host cells, read-out: IC50 µG/mL IN GROWTH […]/ HF
molecule,measurement,setting,value
"4',4-Bis-{4,6-bis-[3-(bis-carbamoylmethyl-1-sulfamoyl)-phenylamino]-[1,3,5]triazin-2-ylamino}-biphenyl-2,2'-dicarboxylic acid, disodium salt [Example 44]",Antiviral IC50 µg/ml RSV/ HF,[1]; [7],0.6 µg/mL
same,Antiviral IC50 µg/ml CMV /HF,"[2]; HF, format not given",1.5 µg/mL
same,Antiviral IC50 µg/ml HSV Vero,[3]; HSV1 (Patton),15 µg/mL
"4,4'-Bis[4,6-di[3-aminophenyl-N,N-bis(2-carbamoyl-ethyl)sulfonylimino]-1,3,5-triazin-2-ylamino]-bibenzyl-2,2'-disulfonic acid, disodium salt [Example 11]",IC50 µG/mL IN GROWTH […]/ HF,[1]; HF host cells,10 µg/mL
same,IC50 µG/mL IN GROWTH […]/ VERO,[1]; vero host cells,10 µg/mL
same,IC50 µG/mL IN GROWTH […]/ HF,[2],> 50 µg/mL
"4,4'-Bis[4,6-di[3-aminophenyl-N,N-bis(2-carbamoyl-ethyl)sulfonylimino]-1,3,5-triazin-2-yloxy]-biphenyl-2,2'-disulfonic acid, disodium salt [Example 19]",IC50 µG/mL IN GROWTH […]/ HF,[1]; HF host cells,2 µg/mL
same,IC50 µG/mL IN GROWTH […]/ VERO,[1]; vero host cells,3 µg/mL
same,IC50 µG/mL IN GROWTH […]/ HF,[2],12 µg/mL
same,IC50 µG/mL IN GROWTH […]/ HF,[3]; HSV1 (Patton),30 µg/mL
same,IC50 µG/mL IN GROWTH […]/ VERO,"[3]; HSV1 (Patton), vero host cells",~50 µg/mL
"4,4'-Bis[4,6-di[3-aminophenyl-N,N-bis(2-hydroxyethyl)sulfonyliminol-1,3,5-triazin-2-ylamino]-biphenyl-2,2'-disulfonic acid, disodium salt [Example 22]",IC50 µG/mL IN GROWTH […]/ HF,[1]; HF host cells,0.15 µg/mL
same,IC50 µG/mL IN GROWTH […]/ VERO,[1]; vero host cells,0.25 µg/mL
same,IC50 µG/mL IN GROWTH […]/ HF,[2],4 µg/mL
same,IC50µG/mL IN PLAQUE ASSAY CMV/ HF,[4],2 µg/mL
"4,4'-Bis[4,6-di[3-aminophenyl-N,N-bis(3-hydroxypropyl)-sulfonylimino]-1,3,5-triazin-2-ylamino]-biphenyl-2,2'-disulfonic acid, disodium salt [Example 59]",Antiviral IC50 µg/ml RSV/ HF,[1]; [7],0.5 µg/mL
same,Antiviral IC50 µg/ml CMV /HF,"[2]; HF, format not given",4 µg/mL
same,Antiviral IC50 µg/ml HSV Vero,[3]; HSV1 (Patton),20 µg/mL
"4,4'-Bis[4,6-di[4-amino-N'-[3-aminophenyl-N,N-bis(2-hydroxyethyl)sulfonylimino]-benzensulfonamide]-1,3,5-triazin-2-ylamino]-stilbene-2,2'-disulfonic acid, disodium salt [Example 25]",IC50 µG/mL IN GROWTH […]/ VERO,[1]; vero host cells,30 µg/mL
"4,4'-Bis[4,6-di[4-aminophenyl-N,N-bis(2-carbamoyl-ethyl)sulfonylimino]-1,3,5-triazin-2-ylamino]-biphenyl-2,2'-disulfonic acid, disodium salt [Example 13]",IC50 µG/mL IN GROWTH […]/ HF,[1]; HF host cells,8 µg/mL
same,IC50 µG/mL IN GROWTH […]/ VERO,[1]; vero host cells,8 µg/mL
same,IC50 µG/mL IN GROWTH […]/ HF,[2],20 µg/mL
same,IC50 µG/mL IN GROWTH […]/ HF,[3]; HSV1 (Patton),10 µg/mL
same,IC50 µG/mL IN GROWTH […]/ VERO,"[3]; HSV1 (Patton), vero host cells",30 µg/mL
"4,4'-Bis[4,6-di[4-aminophenyl-N,N-bis(2-carbamoyl-ethyl)sulfonylimino]-1,3,5-triazin-2-ylamino]-stilbene-2,2'-disulfonic acid, disodium salt [Example 12]",IC50µG/mL IN PLAQUE ASSAY RSV/ VERO,[5],8 µg/mL
same,IC50µG/mL IN PLAQUE ASSAY CMV/ HF,[4],10 µg/mL
"4,4'-Bis[4-chloro-6-[3-aminophenyl-N,N-bis(2-carbamoylethyl)sulfonylimino]-1,3,5-triazin-2-ylamino]-stilbene-2,2'-disulphonic acid, disodium salt [Example 8]",IC50 µG/mL IN GROWTH […]/ HF,[1]; HF host cells,> 50 µg/mL
same,IC50 µG/mL IN GROWTH […]/ VERO,[1]; vero host cells,> 50 µg/mL
same,IC50 µG/mL IN GROWTH […]/ HF,[2],> 50 µg/mL
"4,4'-Bis[4-chloro-6-di[4-amino-N'-[3-aminophenyl-N,N-bis(2-carbamoylethyl)sulfonylimino]-benzamide]-1,3,5-triazin-2-ylamino]-stilbene-2,2' -disulfonic acid, disodium salt [Example 24]",IC50 µG/mL IN GROWTH […]/ VERO,[1]; vero host cells,50 µg/mL
"4-[4,6-Di[3-aminophenyl-N,N-bis(2-carbamoylethyl)sulfonylimino]-1,3,5-triazin-2-ylamino]-4'-[4-[3-aminophenyl-N,N-bis(2-carbamoylethyl)sulfonylimino]-6-[3 -aminophenyl-N,N bis(3-propionic acid)]-1,3,5-triazin-2-ylamino]-stilbene-2,2'-disulphonic acid, disodium salt [Example 10]",IC50 µG/mL IN GROWTH […]/ HF,[1]; HF host cells,< 3 µg/mL
same,IC50 µG/mL IN GROWTH […]/ VERO,[1]; vero host cells,0.7 µg/mL
"4-[4,6-Di[3-aminophenyl-N,N-bis(2-carbamoylethyl)sulfonylimino]-1,3,5-triazin-2-ylamino]-4'-[4-[3-aminophenyl-N,N-bis(2-carbamoylethyl)sulfonylimino]-6-[3 -aminophenyl-N-(2-carbamoylethyl)-N'-(3-propionic acid)]-1,3,5-triazin-2-ylamino]stilbene-2,2'-disulphonic acid, disodium salt [Example 9]",IC50 µG/mL IN GROWTH […]/ HF,[1]; HF host cells,< 3 µg/mL
same,IC50 µG/mL IN GROWTH […]/ VERO,[1]; vero host cells,0.4 µg/mL
same,IC50µG/mL IN PLAQUE ASSAY RSV/ VERO,[5],0.3 µg/mL
same,IC50µG/mL IN PLAQUE ASSAY CMV/ HF,[4],10 µg/mL
"4-[4,6-Di[3-aminophenyl-N,N-bis(2-carbamoylethyl)sulfonylimino]-1,3,5-triazin-2-ylamino]-4'-[4-chloro-6-[3-aminophenyl-N,N-bis(2-carbamoylethyl)sulfonylimino] -1,3,5-triazin-2-ylamino]-stilbene-2,2'-disulphonic acid, disodium salt [Example 7]",IC50 µG/mL IN GROWTH […]/ HF,[1]; HF host cells,0.7 µg/mL
same,IC50 µG/mL IN GROWTH […]/ VERO,[1]; vero host cells,1 µg/mL
same,IC50µG/mL IN PLAQUE ASSAY RSV/ VERO,[5],0.8 µg/mL
same,IC50µG/mL IN PLAQUE ASSAY CMV/ HF,[4],10 µg/mL
"5,5'-Dimethyl-4,4'-bis[4,6-di[3-aminophenyl-N,N-bis(2-carbamoyl-ethyl)sulfonylimino]-1,3,5-triazin-2-ylamino]-biphenyl-2,2'-disulfonic acid, disodium salt [Example 20]",IC50 µG/mL IN GROWTH […]/ HF,[1]; HF host cells,0.5 µg/mL
same,IC50 µG/mL IN GROWTH […]/ VERO,"[3]; HSV1 (Patton), vero host cells",40 µg/mL
"9,9-Dioxo-2,7-Bis[4,6-di[3-aminophenyl-N,N-bis(2-carbamoylethyl)sulfonylimino]-1,3,5-triazin-2-ylamino]-dibenzothiophen-3,6-disulfonic acid, disodium salt [Example 23]",IC50µG/mL IN PLAQUE ASSAY RSV/ VERO,[5],8 µg/mL
same,IC50µG/mL IN PLAQUE ASSAY CMV/ HF,[4],20 µg/mL
"NC(=O)CCN(CCC(N)=O)S(=O)(=O)c1cccc(Nc2nc(Cl)nc(Nc3cccc(S(=O)(=O)N(CCC(N)=O)CCC(N)=O)c3)n2)c1 [Example 6, 2-Chloro-4,6-di[3-aminophenyl-N,N-bis(2-carbamoyl-ethyl)sulfonylimino]-1,3,5-triazine]",IC50,[1]; [8],> 50 µg/mL
same,IC50,[1]; [9],> 50 µg/mL
same,IC50,[2]; [10],> 50 µg/mL
"NS(=O)(=O)c1cccc(Nc2nc(Nc3cccc(S(N)(=O)=O)c3)nc(Nc3ccc(/C=C/c4ccc(Nc5nc(Nc6cccc(S(N)(=O)=O)c6)nc(Nc6cccc(S(N)(=O)=O)c6)n5)cc4S(=O)(=O)O)c(S(=O)(=O)O)c3)n2)c1 [Example 15, 4,4'-Bis[4,6-di[3-aminophenylsulphonylamido]-1,3,5-triazin-2-ylamino]-stilbene-2,2'-disulfonic acid, disodium salt]",IC50,[1]; [8],7 µg/mL
same,IC50,[1]; [9],> 8.3 µg/mL
same,IC50,[2]; [10],2 µg/mL
same,IC50,[4],1 µg/mL
"NS(=O)(=O)c1cccc(Nc2nc(Nc3cccc(S(N)(=O)=O)c3)nc(Nc3ccc(-c4ccc(Nc5nc(Nc6cccc(S(N)(=O)=O)c6)nc(Nc6cccc(S(N)(=O)=O)c6)n5)cc4S(=O)(=O)O)c(S(=O)(=O)O)c3)n2)c1 [Example 16, 4,4'-Bis[4,6-di[3-aminophenylsylphonylimido]-1,3,5-triazin-2-ylamino]-biphenyl-2,2'-disulfonic acid, disodium salt]",IC50,[1]; [8],5 µg/mL
same,IC50,[1]; [9],~8.3 µg/mL
same,IC50,[2]; [10],3 µg/mL
same,IC50,[4],3 µg/mL
"O=S(=O)(O)c1cc(O)ccc1-c1ccc(O)cc1S(=O)(=O)O [Example 17, 4,4'-Dihydroxybiphenyl-2,2'-disulfonic acid]",IC50,[1]; [8],> 50 µg/mL
same,IC50,[1]; [9],> 50 µg/mL
same,IC50,"[3]; Human alphaherpesvirus 1, HSV1 (Patton), vero host cells, read-out: IC50 µG/mL IN GROWTH INHIBITION HSV/ VERO",> 50 µg/mL
"CC(O)CN(CC(C)O)S(=O)(=O)c1cccc(Nc2nc(Nc3cccc(S(=O)(=O)N(CC(C)O)CC(C)O)c3)nc(Nc3ccc(-c4ccc(Nc5nc(Nc6cccc(S(=O)(=O)N(CC(C)O)CC(C)O)c6)nc(Nc6cccc(S(=O)(=O)N(CC(C)O)CC(C)O)c6)n5)cc4C(=O)[O-])c(C(=O)[O-])c3)n2)c1.[Na+].[Na+] (stereo not drawn) [Example 41, 4,4'-Bis-(4,6-bis-{3-[bis-(2-hydroxy-propyl)-sulfamoyl]-phenylamino}-[1,3,5]triazin-2-ylamino)biphenyl-2,2'-dicarboxylic acid, disodium salt]",IC50,"[1]; Table 1a, HF, yield reduction or plaque format not specified, read-out: Antiviral IC50 µg/ml RSV/ HF",2 µg/mL
same,IC50,"[2]; Human betaherpesvirus 5, Table 1a, HF, format not given, read-out: Antiviral IC50 µg/ml CMV /HF",8 µg/mL
same,IC50,"[3]; Human alphaherpesvirus 1, Vero, read-out: Antiviral IC50 µg/ml HSV Vero",> 50 µg/mL
"NC(=O)c1ncn([C@@H]2O[C@H](CO)[C@@H](O)[C@H]2O)n1 [Ribavirin, ribavirin, reference compound]",Fold red. log10,[6],0.8 log10
same,Mean titer log10/g lung,[6],3.3 log10/g lung
